Data: ChEMBL document CHEMBL1201862, “PubChem BioAssay data set” (2004)
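Cultured in 96-well plates, cells were exposed to test compound for 48 hours across five concentrations. At the GI50, growth is halved.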 The source made the active and inactive calls. Rule as the data show it: active = GI50 up to about 1.1 µM and inactive = higher.

How the values were obtained:
Assay in all cases: DTP human tumour cell line panel, 48 h
A549 = test system: A549
COLO 205 = test system: COLO 205
HL-60 = test system: HL-60
KM12 = test system: KM12
MCF7 = test system: MCF7
MDA-MB-435 = test system: MDA-MB-435
OVCAR-3 = test system: OVCAR-3
OVCAR-5 = test system: OVCAR-5
RPMI-8226 = test system: RPMI-8226
RXF 393 = test system: RXF 393
SK-MEL-2 = test system: SK-MEL-2
SK-MEL-5 = test system: SK-MEL-5
SNB-75 = test system: SNB-75
SW-620 = test system: SW-620
TK-10 = test system: TK-10
U-251 = test system: U-251
UACC-257 = test system: UACC-257
UACC-62 = test system: UACC-62
UO-31 = test system: UO-31
SF-539 = test system: SF-539

Measured: GI50

O=C(O)C(Cc1cccs1)C(=O)O
inactive: A549 > 100 µM | COLO 205 > 100 µM | HL-60 > 100 µM | KM12 > 100 µM | MCF7 > 100 µM | MDA-MB-435 > 100 µM | OVCAR-3 > 100 µM | OVCAR-5 > 100 µM | RPMI-8226 > 100 µM | RXF 393 > 100 µM | SK-MEL-2 > 100 µM | SK-MEL-5 > 100 µM | SNB-75 > 100 µM | SW-620 > 100 µM | TK-10 > 100 µM | U-251 > 100 µM | UACC-257 > 100 µM | UACC-62 > 100 µM | UO-31 > 100 µM

ON(CCc1ccccn1)Cc1ccccc1
inactive: A549 > 100 µM | COLO 205 > 100 µM | KM12 > 100 µM | MCF7 > 100 µM | MDA-MB-435 > 100 µM | OVCAR-3 > 100 µM | OVCAR-5 > 100 µM | RPMI-8226 > 100 µM | RXF 393 > 100 µM | SF-539 > 100 µM | SK-MEL-2 > 100 µM | SK-MEL-5 > 100 µM | SNB-75 > 100 µM | SW-620 > 100 µM | TK-10 > 100 µM | U-251 > 100 µM | UACC-257 > 100 µM | UACC-62 > 100 µM | UO-31 > 100 µM

CCC1(CC)C(=O)N(C(=O)c2ccc(Cl)cc2)N(C(=O)c2ccccc2Cl)C1=O
inactive: A549 > 100 µM | COLO 205 > 100 µM | HL-60 37.7 µM | KM12 52.8 µM | MCF7 43.1 µM | MDA-MB-435 11.2 µM | OVCAR-3 27.1 µM | OVCAR-5 > 100 µM | RPMI-8226 25.8 µM | RXF 393 > 100 µM | SK-MEL-2 > 100 µM | SK-MEL-5 75 µM | SNB-75 16.1 µM | SW-620 29.4 µM | TK-10 31.2 µM | U-251 33.3 µM | UACC-257 > 100 µM | UACC-62 85.3 µM | UO-31 > 100 µM

O=C(O[C@H](/C=C/c1ccccc1)P1(=O)N(Cc2ccccc2)[C@H]2CCCC[C@@H]2N1Cc1ccccc1)c1ccccc1
inactive: A549 3.7 µM | COLO 205 1.68 µM | HL-60 2.95 µM | KM12 3.41 µM | MCF7 3.51 µM | MDA-MB-435 3.05 µM | OVCAR-3 3.94 µM | OVCAR-5 4.94 µM | RPMI-8226 3.42 µM | SF-539 3.72 µM | SK-MEL-2 2.39 µM | SK-MEL-5 1.87 µM | SW-620 3.72 µM | TK-10 > 100 µM | U-251 4.01 µM | UACC-257 9.84 µM | UACC-62 5.33 µM | UO-31 4.61 µM

COc1ccc(CNc2nc3cc(C(F)(F)F)ccc3nc2C(=O)O)cc1
inactive: A549 28.8 µM | COLO 205 22.5 µM | KM12 22.4 µM | MCF7 25 µM | MDA-MB-435 21.3 µM | OVCAR-3 15.3 µM | OVCAR-5 28.4 µM | RPMI-8226 39.3 µM | SF-539 23 µM | SK-MEL-2 23.1 µM | SK-MEL-5 12.3 µM | SNB-75 38 µM | SW-620 31.1 µM | U-251 28.6 µM | UACC-257 24.8 µM | UACC-62 21.9 µM | UO-31 17.8 µM

CC1CC/C(=C\c2ccc(F)cc2)C2=C1C(c1ccc(F)cc1)n1c(s/c(=C\c3ccc(Cl)cc3)c1=O)=N2 (configuration not stated)
inactive: A549 > 100 µM | HL-60 > 100 µM | KM12 > 100 µM | MCF7 > 100 µM | MDA-MB-435 > 100 µM | OVCAR-5 > 100 µM | RPMI-8226 > 100 µM | RXF 393 > 100 µM | SK-MEL-2 > 100 µM | SK-MEL-5 > 100 µM | SW-620 > 100 µM | TK-10 > 100 µM | U-251 > 100 µM | UACC-257 > 100 µM | UACC-62 > 100 µM

CCOC(=O)C1=COC(C)(C)CC1=O
inactive: A549 > 100 µM | COLO 205 > 100 µM | KM12 > 100 µM | MCF7 > 100 µM | MDA-MB-435 > 100 µM | OVCAR-3 > 100 µM | OVCAR-5 > 100 µM | RPMI-8226 > 100 µM | RXF 393 > 100 µM | SF-539 > 100 µM | SK-MEL-2 > 100 µM | SK-MEL-5 > 100 µM | SNB-75 > 100 µM | SW-620 > 100 µM | TK-10 > 100 µM | U-251 > 100 µM | UACC-257 > 100 µM | UACC-62 > 100 µM | UO-31 > 100 µM

Oc1ccc2ccccc2c1OCc1nnc(CCCCCCCCc2nnc(COc3c(O)ccc4ccccc34)o2)o1
inactive: A549 > 100 µM | COLO 205 > 100 µM | KM12 25.2 µM | MCF7 59.2 µM | MDA-MB-435 > 100 µM | OVCAR-5 > 100 µM | RPMI-8226 > 100 µM | RXF 393 > 100 µM | SK-MEL-2 > 100 µM | SK-MEL-5 > 100 µM | SNB-75 > 100 µM | SW-620 > 100 µM | TK-10 > 100 µM | U-251 35.7 µM | UACC-257 > 100 µM | UACC-62 > 100 µM | UO-31 > 100 µM

N#CC(C#N)=C1C(C#N)=C(N)NC12OCCO2
inactive: A549 > 100 µM | COLO 205 > 100 µM | HL-60 > 100 µM | KM12 > 100 µM | MCF7 > 100 µM | MDA-MB-435 > 100 µM | OVCAR-5 > 100 µM | RPMI-8226 > 100 µM | RXF 393 > 100 µM | SK-MEL-2 > 100 µM | SK-MEL-5 > 100 µM | SW-620 > 100 µM | TK-10 > 100 µM | U-251 > 100 µM | UACC-257 > 100 µM | UACC-62 > 100 µM | UO-31 > 100 µM

C=C(C)OCOCCOC
inactive: A549 > 100 µM | COLO 205 > 100 µM | HL-60 > 100 µM | KM12 > 100 µM | MCF7 > 100 µM | MDA-MB-435 > 100 µM | OVCAR-3 > 100 µM | OVCAR-5 > 100 µM | RPMI-8226 > 100 µM | SF-539 > 100 µM | SK-MEL-2 > 100 µM | SK-MEL-5 > 100 µM | SNB-75 > 100 µM | SW-620 > 100 µM | TK-10 > 100 µM | U-251 > 100 µM | UACC-257 > 100 µM | UACC-62 > 100 µM | UO-31 > 100 µM

O=C(O)[C@@H]1[C@H](C(=O)O)[C@H](C(=O)O)C[C@@H]1C(=O)O
inactive: A549 > 100 µM | COLO 205 > 100 µM | KM12 > 100 µM | MCF7 > 100 µM | MDA-MB-435 > 100 µM | OVCAR-3 > 100 µM | OVCAR-5 > 100 µM | RPMI-8226 > 100 µM | RXF 393 > 100 µM | SF-539 > 100 µM | SK-MEL-2 > 100 µM | SK-MEL-5 > 100 µM | SNB-75 > 100 µM | SW-620 > 100 µM | TK-10 > 100 µM | U-251 > 100 µM | UACC-257 > 100 µM | UACC-62 > 100 µM | UO-31 > 100 µM

CC#CCCCC1(C)CCNC1=S (configuration not stated)
inactive: A549 > 10 µM | HL-60 > 10 µM | KM12 > 10 µM | MCF7 > 10 µM | MDA-MB-435 > 10 µM | OVCAR-3 > 10 µM | OVCAR-5 > 10 µM | RXF 393 > 10 µM | SF-539 > 10 µM | SK-MEL-2 > 10 µM | SNB-75 > 10 µM | SW-620 > 10 µM | TK-10 > 10 µM | U-251 > 10 µM | UACC-257 > 10 µM | UO-31 > 10 µM

CS/C=C\C(=O)O[C@H]1C[C@@H]2[C@@H](O)c3occ(C)c3C[C@]2(C)[C@@H](C)C1
inactive: COLO 205 17.9 µM | HL-60 14.9 µM | KM12 91 µM | MCF7 31.9 µM | MDA-MB-435 23.1 µM | OVCAR-3 16.4 µM | OVCAR-5 34.8 µM | RPMI-8226 30.4 µM | RXF 393 22.9 µM | SF-539 21.7 µM | SK-MEL-5 14.9 µM | SW-620 33.3 µM | TK-10 50 µM | U-251 2.96 µM | UACC-257 14.8 µM | UACC-62 17.9 µM

CN(C)CCCN1C(=O)N(CCCN(C)C)c2c3cc(O)ccc3nc3c([N+](=O)[O-])ccc1c23
inactive: A549 13.6 µM | COLO 205 13.7 µM | KM12 14.9 µM | MCF7 11.3 µM | MDA-MB-435 18 µM | OVCAR-3 26.1 µM | OVCAR-5 53.1 µM | RPMI-8226 32.6 µM | RXF 393 11.9 µM | SF-539 16 µM | SK-MEL-2 15.6 µM | SK-MEL-5 15.5 µM | SNB-75 29.3 µM | SW-620 16 µM | TK-10 21.3 µM | U-251 14.2 µM | UACC-257 30.8 µM | UACC-62 11.9 µM | UO-31 20.5 µM

CN(C)Cc1cc(C(=O)/C=C/c2ccc(F)cc2)cc(CN(C)C)c1O
inactive: A549 26.6 µM | HL-60 11.5 µM | KM12 18.9 µM | MCF7 16.2 µM | MDA-MB-435 16.3 µM | OVCAR-3 9.23 µM | OVCAR-5 57.7 µM | RPMI-8226 22.5 µM | RXF 393 12.9 µM | SF-539 21.1 µM | SK-MEL-5 19.1 µM | SNB-75 22.9 µM | SW-620 20.4 µM | TK-10 85.9 µM | U-251 24.4 µM | UACC-257 13.4 µM | UACC-62 3.14 µM | UO-31 13.4 µM
